Experiments:
Conditions in all cases: incubation time: 72 h
[1] = tested on: BT-474; experiment: normalised viability (% of control), CellTiter-Blue; higher = more viable cells (100 = DMSO, 0 = benzethonium chloride kill control)
Description: (§1)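 DSRT, CellTiter-Blue viability, 72 h incubation. Signal is normalised to DMSO and benzethonium chloride controls. Value is the normalised response at dose 1.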

[2] = tested on: BT-549; experiment: as above
Description: as §1

[3] = tested on: CAL-120; experiment: as above
Description: as §1

[4] = tested on: CAL-148; experiment: as above
Description: as §1

[5] = tested on: CAL-51; experiment: as above
Description: as §1

[6] = tested on: CAL-85-1; experiment: as above
Description: as §1

[7] = tested on: DU-4475; experiment: as above
Description: as §1

[8] = tested on: HCC1143; experiment: as above
Description: as §1

[9] = tested on: HCC1599; experiment: as above
Description: as §1

[10] = tested on: HCC1937; experiment: as above
Description: as §1

[11] = tested on: HDQ-P1; experiment: as above
Description: as §1

[12] = tested on: Hs578T; experiment: as above
Description: as §1

[13] = tested on: MDA-MB-231; experiment: as above
Description: as §1

[14] = tested on: MDA-MB-436; experiment: as above
Description: as §1

[15] = tested on: MDA-MB-453; experiment: as above
Description: as §1

[16] = tested on: MDA-MB-468; experiment: as above
Description: as §1

[17] = tested on: MFM-223; experiment: as above
Description: as §1

[18] = tested on: SK-BR-3; experiment: as above
Description: as §1

[19] = tested on: CAL-148; experiment: normalised viability (% of control), CellTiter-Blue; higher = more viable cells (about 100 = DMSO control)
Description: (§2)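 DSRT, CellTiter-Blue viability, 72 h incubation. Signal is normalised to DMSO and benzethonium chloride controls. Value is the normalised response at dose 9.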

[20] = tested on: CAL-51; experiment: as above
Description: as §2

[21] = tested on: CAL-85-1; experiment: as above
Description: as §2

[22] = tested on: DU-4475; experiment: as above
Description: as §2

[23] = tested on: HDQ-P1; experiment: as above
Description: as §2

[24] = tested on: MDA-MB-453; experiment: as above
Description: as §2

[25] = tested on: CAL-148; experiment: as above; remark: listed apart in the source
Description: (§3)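 DSRT, CellTiter-Blue viability, 72 h incubation. Signal is normalised to DMSO and benzethonium chloride controls. Value is the normalised response at dose 8.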

[26] = tested on: CAL-51; experiment: as above; remark: listed apart in the source
Description: as §3

[27] = tested on: CAL-85-1; experiment: as above; remark: listed apart in the source
Description: as §3

[28] = tested on: DU-4475; experiment: as above; remark: listed apart in the source
Description: as §3

[29] = tested on: HDQ-P1; experiment: as above; remark: listed apart in the source
Description: as §3

[30] = tested on: MDA-MB-453; experiment: as above; remark: listed apart in the source
Description: as §3

SMILES	normalised viability [19] [%]	normalised viability [20] [%]	normalised viability [21] [%]	normalised viability [22] [%]	normalised viability [23] [%]	normalised viability [24] [%]	normalised viability [25] [%]	normalised viability [26] [%]	normalised viability [27] [%]	normalised viability [28] [%]	normalised viability [29] [%]	normalised viability [30] [%]	further results
NC(=O)Nc1cc(-c2cccc(F)c2)sc1C(=O)N[C@H]1CCCNC1 [AZD 7762] (0.1 nM)	–	–	–	–	–	–	–	–	–	–	–	–	normalised viability [1]: 115%; normalised viability [2]: 108%; normalised viability [3]: 102%; normalised viability [4]: 104%; normalised viability [5]: 101%; normalised viability [6]: 107%; normalised viability [7]: 101%; normalised viability [8]: 115%; normalised viability [9]: 89%; normalised viability [10]: 119%; normalised viability [11]: 132%; normalised viability [12]: 124%; normalised viability [13]: 115%; normalised viability [14]: 115%; normalised viability [15]: 117%; normalised viability [16]: 111%; normalised viability [17]: 108%; normalised viability [18]: 102%
NCC(=O)CCC(=O)O [Aminolevulinic acid] (10000 nM)	104	83.2	76.9	111	106	87.7	–	–	–	–	–	–	–
CC(=O)Nc1ccc(C(=O)Nc2ccccc2N)cc1 [CI-994] (1000 nM)	96.2	95.3	98.5	80.7	108	101	–	–	–	–	–	–	–
CCN(CCCOc1ccc2c(Nc3cc(CC(=O)Nc4cccc(F)c4)[nH]n3)ncnc2c1)CCOP(=O)(O)O [Barasertib] (1000 nM)	26.3	42	81.2	40.8	96.2	44.1	–	–	–	–	–	–	–
CCN(CCCOc1ccc2c(Nc3cc(CC(=O)Nc4cccc(F)c4)[nH]n3)ncnc2c1)CCOP(=O)(O)O [Barasertib] (0.1 nM)	–	–	–	–	–	–	–	–	–	–	–	–	normalised viability [1]: 109%; normalised viability [2]: 103%; normalised viability [3]: 95.5%; normalised viability [4]: 105%; normalised viability [5]: 95.4%; normalised viability [6]: 105%; normalised viability [7]: 123%; normalised viability [8]: 107%; normalised viability [9]: 105%; normalised viability [10]: 104%; normalised viability [11]: 96.5%; normalised viability [12]: 135%; normalised viability [13]: 113%; normalised viability [14]: 118%; normalised viability [15]: 93.3%; normalised viability [16]: 112%; normalised viability [17]: 102%; normalised viability [18]: 108%
Cc1ccc(C(=O)N(CCCN)[C@@H](c2oc3cc(Cl)ccc3c(=O)c2Cc2ccccc2)C(C)C)cc1 (1000 nM)	17.6	18.8	32.5	7.45	72.4	24.6	–	–	–	–	–	–	–
C[C@@H](Oc1cc(-c2cnn(C3CCNCC3)c2)cnc1N)c1c(Cl)ccc(F)c1Cl [Crizotinib] (10000 nM)	48.6	31.2	39.5	11.7	39.6	24.9	–	–	–	–	–	–	–
NCC(=O)CCC(=O)O [Aminolevulinic acid] (3000 nM)	–	–	–	–	–	–	96.7	109	88.7	110	103	122	–
C[C@]12CC[C@@H]3c4ccc(O)cc4C[C@@H](CCCCCCCCC[S+]([O-])CCCC(F)(F)C(F)(F)F)[C@H]3[C@@H]1CC[C@@H]2O (stereo partly specified) [Fulvestrant] (3000 nM)	–	–	–	–	–	–	104	99.7	94.6	107	90.4	92.8	–
N[C@@H](CSC(c1ccccc1)(c1ccccc1)c1ccccc1)C(=O)O [S-trityl-L-cysteine] (12000 nM)	–	–	–	–	–	–	106	98.6	36.7	114	84.6	99.1	–
CC(=O)Nc1ccc(C(=O)Nc2ccccc2N)cc1 [CI-994] (300 nM)	–	–	–	–	–	–	100	99.5	110	90.5	130	96.1	–
CCC1(c2ccc(N)cc2)CCC(=O)NC1=O (stereo unspecified) [Aminoglutethimide] (3000 nM)	–	–	–	–	–	–	105	85.1	90.1	103	92.5	82.6	–
